Our source for the IC50 values is patent publication US11814364B2, “Pyridine N-oxide derivatives useful as factor XIa inhibitors” (Janssen Pharmaceutica NV, priority 2021, dated 2023).

This assay deals with human plasma kallikrein (Homo sapiens, UniProt P03952). Kind of assay: Kallikrein inhibition FLINT assay with quenched AMC peptide substrate Z-Gly-Pro-Arg-AMC (end point EP or kinetic KIN reads). The format is biochemical. Conditions: kinetic reads at 5 min intervals over 30 min; read-out: Kallikrein (KIN) IC50. A digest of the protocol: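 Enzyme and compound were preincubated 30 min before adding 50 μM AMC substrate in pH 7.5 Tris/NaCl/CaCl2/BSA/CHAPS buffer. AMC release was read at 30 min endpoint or every 5 min.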
Chain of human plasma kallikrein (P03952 391-638 limits assumed): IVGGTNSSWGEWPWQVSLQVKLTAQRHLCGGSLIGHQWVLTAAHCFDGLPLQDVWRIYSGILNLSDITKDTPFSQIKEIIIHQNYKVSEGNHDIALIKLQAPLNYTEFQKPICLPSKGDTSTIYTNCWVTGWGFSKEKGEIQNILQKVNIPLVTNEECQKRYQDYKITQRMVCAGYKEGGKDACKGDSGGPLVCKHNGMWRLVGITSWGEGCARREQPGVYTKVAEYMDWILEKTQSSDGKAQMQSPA
Chain of human plasma kallikrein (P03952 20-390 partner limits assumed): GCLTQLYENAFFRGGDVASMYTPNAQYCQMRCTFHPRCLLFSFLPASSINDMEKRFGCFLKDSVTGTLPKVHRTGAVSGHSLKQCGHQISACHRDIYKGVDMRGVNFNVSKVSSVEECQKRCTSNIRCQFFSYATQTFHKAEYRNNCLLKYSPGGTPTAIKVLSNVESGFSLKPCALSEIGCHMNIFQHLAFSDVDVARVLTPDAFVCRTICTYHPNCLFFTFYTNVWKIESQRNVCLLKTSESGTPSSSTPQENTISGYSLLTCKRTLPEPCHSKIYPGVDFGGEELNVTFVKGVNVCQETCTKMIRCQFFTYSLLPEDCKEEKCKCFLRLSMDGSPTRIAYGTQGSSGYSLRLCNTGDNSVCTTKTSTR

`COC(=O)Nc1ccc(-c2cnn(C(CC3CCCO3)c3ccc(-c4c(-n5cnnn5)ccc(Cl)c4F)c[n+]3[O-])c2)cc1` (stereo not drawn) [Example P203]: the IC50 was 63.3 nM.

As for `[2H]C([2H])([2H])n1ncc(NC(=O)C2CC2)c1-c1cnn(C(CCOC(F)F)c2ccc(-c3c(-n4cc(Cl)nn4)ccc(Cl)c3F)c[n+]2[O-])c1` (single isomer, unassigned) [Example P810], the IC50 is about 383 nM. On to `O=C(NC1CC1)c1ccc(-c2cnn(C(Cc3ccc(-c4ccccc4)cc3)c3ccc(-c4cc(Cl)ccc4-n4cnnn4)c[n+]3[O-])c2)cc1` (stereo not drawn) [Example P87], for which the IC50 is 79.8 nM. Consider `Cn1ncnc1-c1cnn([C@H](CCOC(F)F)c2ccc(-c3c(-n4cc(C5CC5)nn4)ccc(Cl)c3F)c[n+]2[O-])c1` [Example P781], for which the IC50 worked out at 203 nM. Turning to `COC(=O)Nc1ccc(-c2cnn(C(Cc3ccc(F)cc3)c3ccc(-c4c(-n5cnnn5)ccc(Cl)c4F)c[n+]3[O-])c2)cc1` (stereo not drawn) [Example P117], the IC50 turned out to be 9.7 nM. On to `Cn1cncc1-c1cnn(C(CC2CC2)c2ccc(-c3c(-n4cnnn4)ccc(Cl)c3F)c[n+]2[O-])c1` (stereo not drawn) [Example P457], for which the IC50 came out at 554 nM. With `CC(C)c1cc(-c2cnn(C(Cn3cc(F)cn3)c3ccc(-c4c(-n5cnnn5)ccc(Cl)c4F)c[n+]3[O-])c2)ccn1` (stereo not drawn) [Example P393] the figure was 36.6 nM. With `NC(=O)c1ccc(-c2cnn([C@H](CCOC(F)F)c3ccc(-c4c(-n5cc(C(F)(F)F)nn5)ccc(Cl)c4F)c[n+]3[O-])c2)cc1F` [Example P860] the figure was 10.2 nM. The figure for `Cn1cncc1-c1cnn(C(Cn2cc(F)cn2)c2ccc(-c3c(-n4cnnn4)ccc(Cl)c3F)c[n+]2[O-])c1` (stereo not drawn) [Example P502] is 30.1 nM.

For the compound `COC(=O)Nc1ccc(-c2cnn(C(Cn3cccn3)c3ccc(-c4c(-n5cnnn5)ccc(Cl)c4F)c[n+]3[O-])c2)cc1` (single isomer, unassigned) [Example P272], the IC50 came to 3.2 nM. For the compound `NC(=O)c1ccc(-c2cnn(C(Cc3ccn(C(F)F)n3)c3ccc(-c4c(-n5cc(C(F)(F)F)nn5)ccc(Cl)c4F)c[n+]3[O-])c2)cc1F` (stereo not drawn) [Example P892], the half-inhibitory concentration (IC50) is 2.9 nM. Regarding `Cn1cnc(Cl)c1-c1cnn([C@H](CC2CC2)c2ccc(-c3c(-n4cnnn4)ccc(Cl)c3F)c[n+]2[O-])c1` [Example P848], the IC50 came to 185 nM.

For `[O-][n+]1cc(-c2c(-n3cnnn3)ccc(Cl)c2F)ccc1[C@@H](CC1CC1)n1cc(-c2nnn(C(F)F)c2Cl)cn1` [Example P604], the half-inhibitory concentration (IC50) worked out at 290 nM. In the case of `COc1ccc(CC(c2ccc(-c3cc(Cl)ccc3-n3cnnn3)c[n+]2[O-])n2cc(-c3ccc(C(=O)O)cc3)cn2)cc1` (stereo not drawn) [Example P64], the IC50 stood at 5.3 nM. In the case of `[O-][n+]1cc(-c2c(-n3cc(Cl)nn3)ccc(Cl)c2F)ccc1[C@@H](CCOC(F)F)n1cc(-c2cnnn2C(F)F)cn1` [Example P668], the IC50 came to 39.2 nM. In the case of `CN(CC(c1ccc(-c2c(-n3cnnn3)ccc(Cl)c2F)c[n+]1[O-])n1cc(-c2ccnc(C(F)(F)F)c2)cn1)C(=O)c1ccn(C)c(=O)c1` (single isomer, unassigned) [Example P434], the IC50 came out at 427 nM.

Regarding `[O-][n+]1cc(-c2c(-n3cnnn3)ccc(Cl)c2F)ccc1C(Cn1cc(F)cn1)n1cc(-c2ccncc2)cn1` (stereo not drawn) [Example P276], the IC50 stood at 8.1 nM. With `O=C(O)c1ccc(-c2cnn(C(CCOC(F)F)c3ccc(-c4c(-n5cc(C(F)(F)F)nn5)ccc(Cl)c4F)c[n+]3[O-])c2)cc1F` (single isomer, unassigned) [Example P887] the figure was 5.8 nM; with `NC(=O)c1ccnn1CC(c1ccc(-c2c(C(F)F)ccc(Cl)c2F)c[n+]1[O-])n1cc(-c2ccnc(C(F)(F)F)c2)cn1` (single isomer, unassigned) [Example Q27], 4.7 nM. Consider `[2H]C([2H])([2H])OCCC(c1ccc(-c2c(-n3cnnn3)ccc(Cl)c2F)c[n+]1[O-])n1cc(-c2ccnc(C(F)(F)F)c2)cn1` (single isomer, unassigned) [Example P386], for which the concentration for half-maximal inhibition (IC50) worked out at 39.8 nM. As to `CCC(c1ccc(-c2c(-n3cnnn3)ccc(Cl)c2F)c[n+]1[O-])n1cc(-c2ccncc2)cn1` (single isomer, unassigned) [Example P212], the IC50 is 59.3 nM. Consider `CC1(C(=O)NCC(c2ccc(-c3cc(Cl)ccc3-n3cnnn3)c[n+]2[O-])n2cc(-c3ccnc(F)c3)cn2)CC1` (stereo not drawn) [Example P347], for which the IC50 was 806 nM. On to `CCOCCC(c1ccc(-c2c(-n3cnnn3)ccc(Cl)c2F)c[n+]1[O-])n1cc(-c2ccc(NC(=O)OC)cc2)cn1` (stereo not drawn) [Example P204], for which the IC50 came to 45.1 nM. Take `[O-][n+]1cc(-c2c(-n3cc(Cl)nn3)ccc(Cl)c2F)ccc1[C@H](Cn1cc(F)cn1)n1cc(-c2c(F)cnn2C(F)F)cn1` [Example P634]: the concentration for half-maximal inhibition (IC50) came to 739 nM.

As to `COc1cc(C(Cc2ccn(C(F)F)n2)n2cc(-c3ccc(C(N)=O)c(F)c3)cn2)[n+]([O-])cc1-c1cc(Cl)ccc1C(C)=O` (single isomer, unassigned) [Example Q78], the IC50 came to 510 nM. Take `[O-][n+]1cc(-c2c(-n3cnnn3)ccc(Cl)c2F)ccc1C(Cn1cc2c(n1)COCC2)n1cc(-c2ccnc(C(F)(F)F)c2)cn1` (stereo not drawn) [Example P463]: the IC50 amounted to 6.4 nM.

Consider `[O-][n+]1ccc(-c2cnn(C(Cc3ccc(F)cc3)c3ccc(-c4c(-n5cnnn5)ccc(Cl)c4F)c[n+]3[O-])c2)cc1` (single isomer, unassigned) [Example P238], for which the concentration for half-maximal inhibition (IC50) was 0.7 nM. `[O-][n+]1cc(-c2c(-n3cnnn3)ccc(Cl)c2F)ccc1[C@@H](Cc1ccc(F)cc1)n1cc(-c2ccn(C(F)F)n2)cn1` [Example P569]: the IC50 stood at 7.5 nM. Regarding `[O-][n+]1ccc(-c2cnn(C(Cn3cccn3)c3ccc(-c4c(-n5cnnn5)ccc(Cl)c4F)c[n+]3[O-])c2)cc1C(F)F` (single isomer, unassigned) [Example P339], the IC50 worked out at 670 nM. Take `[O-][n+]1cc(-c2c(-n3cnnn3)ccc(Cl)c2F)ccc1[C@@H](Cc1ccc(C(F)(F)F)nc1)n1cc(-c2ncnn2C(F)F)cn1` [Example P783]: the IC50 was 18.9 nM. `CN(CC(c1ccc(-c2c(-n3cnnn3)ccc(Cl)c2F)c[n+]1[O-])n1cc(-c2ccnc(C(F)(F)F)c2)cn1)C(=O)OCc1ccccc1` (single isomer, unassigned) [Example P375]: the IC50 is 55.9 nM. Consider `[O-][n+]1cc(-c2c(-n3cnnn3)ccc(Cl)c2F)ccc1C(Cn1cccn1)n1cc(-c2ccnc(C(F)(F)F)c2)cn1` (single isomer, unassigned) [Example P514], for which the IC50 amounted to 72.9 nM.

As for `COc1cc(C(CC2CC2)n2cc(-c3cnn(C(C)C)c(=O)c3)cn2)[n+]([O-])cc1-c1c(-n2cnnn2)ccc(Cl)c1F` (stereo not drawn) [Example P161], the IC50 is 76.7 nM.

For the compound `Nc1ccc(-c2cnn(C(Cn3cc(F)cn3)c3ccc(-c4c(C(F)F)ccc(Cl)c4F)c[n+]3[O-])c2)c(F)n1` (single isomer, unassigned) [Example Q26], the IC50 is 420 nM.

For `NC(=O)c1ccc(-c2cnn(C(Cc3ccn(C(F)F)n3)c3ccc(-c4cc(Cl)ccc4-n4cc(C(F)(F)F)nn4)c[n+]3[O-])c2)cc1F` (single isomer, unassigned) [Example P905], the IC50 was determined as 889 nM. As for `Cn1cc(C[C@H](c2ccc(-c3c(-n4cnnn4)ccc(Cl)c3F)c[n+]2[O-])n2cc(-c3ccnc(C(F)(F)F)c3)cn2)nn1` [Example P736], the IC50 is 8.4 nM.

What is called IC50 is the midpoint of a concentration-inhibition curve.
